± gives the standard deviation of the averaged measurements.
Legend:
Details in all cases: 72 h
[1] = tested on: HepG2; experiment: drug sensitivity score (DSS) for viability; higher = more toxic; extreme values may be limits of the assay
[2] = tested on: Caco-2; experiment: as above
[3] = tested on: U2OS; experiment: as above
[4] = tested on: Calu-3; experiment: as above
[5] = tested on: Vero E6; experiment: as above
[6] = tested on: HepG2; experiment: cell viability relative to DMSO; higher = less toxic
[7] = tested on: Caco-2; experiment: as above
[8] = tested on: U2OS; experiment: as above
[9] = tested on: Calu-3; experiment: as above
[10] = tested on: Vero E6; experiment: as above
[11] = tested on: HepG2; experiment: relative viability EC50 (midpoint between 100% and the lowest measured viability); higher = less toxic
[12] = tested on: Caco-2; experiment: as above
[13] = tested on: U2OS; experiment: as above
[14] = tested on: Calu-3; experiment: as above
[15] = tested on: Vero E6; experiment: as above

| SMILES | drug sensitivity score [1] | drug sensitivity score [2] | drug sensitivity score [3] | drug sensitivity score [4] | drug sensitivity score [5] | cell viability ([6]; 1 nM) [%] | cell viability ([6]; 10 nM) [%] | cell viability ([6]; 100 nM) [%] | cell viability ([6]; 1000 nM) [%] | cell viability ([6]; 10000 nM) [%] | cell viability ([7]; 1 nM) [%] | cell viability ([7]; 10 nM) [%] | cell viability ([7]; 100 nM) [%] | cell viability ([7]; 1000 nM) [%] | cell viability ([7]; 10000 nM) [%] | cell viability ([8]; 1 nM) [%] | cell viability ([8]; 10 nM) [%] | cell viability ([8]; 100 nM) [%] | cell viability ([8]; 1000 nM) [%] | cell viability ([8]; 10000 nM) [%] | cell viability ([9]; 1 nM) [%] | cell viability ([9]; 10 nM) [%] | cell viability ([9]; 100 nM) [%] | cell viability ([9]; 1000 nM) [%] | cell viability ([9]; 10000 nM) [%] | cell viability ([10]; 1 nM) [%] | cell viability ([10]; 10 nM) [%] | cell viability ([10]; 100 nM) [%] | cell viability ([10]; 1000 nM) [%] | cell viability ([10]; 10000 nM) [%] | relative viability EC50 [11] [µM] | relative viability EC50 [12] [µM] | relative viability EC50 [13] [µM] | relative viability EC50 [14] [µM] | relative viability EC50 [15] [µM] |
| --- | --- | --- | --- | --- | --- | --- | --- | --- | --- | --- | --- | --- | --- | --- | --- | --- | --- | --- | --- | --- | --- | --- | --- | --- | --- | --- | --- | --- | --- | --- | --- | --- | --- | --- | --- |
| CCCCCCCCCCCCCCCCNc1ccc(C(=O)O)cc1 [cetaben] | 0 | 0 | 0 | 0 | 0 | 101 | 111 | 97.3 | 105 | 99.5 | 99.2 | 97.4 | 109 | 93.7 | 103 | 99.5 | 97.8 | 102 | 99.2 | 98.5 | 99.5 | 101 | 98.5 | 90.8 | 95.4 | 99.8 | 99.2 | 94.4 | 98.8 | 101 | > 10 | > 10 | > 10 | > 10 | > 10 |
| CC1OC2(CS1)CN1CCC2CC1 (stereo not given) [cevimeline] | 0 | 0 | 0 | 0 | 0 | 107 | 97 | 94.9 | 89.2 | 111 | 98.3 | 88.1 | 91.3 | 91 | 96.3 | 99.1 | 98.9 | 99.7 | 106 | 106 | 106 | 92.9 | 102 | 97.1 | 103 | 96.7 | 91.5 | 92.7 | 89.7 | 102 | > 10 | > 10 | > 10 | > 10 | > 10 |
| CC1(C)[C@H]2CC[C@]1(C)[C@@H](O)[C@H]2O [cis-exo-camphanediol-2,3] | 0 | 0 | 0 | 0 | 0 | 92 | 88.7 | 98.7 | 98.1 | 102 | 99.8 ± 5.1 | 104 ± 12 | 100 ± 9.5 | 102 ± 15 | 95.5 ± 5.4 | 99.55 ± 0.071 | 106 ± 1.4 | 99 ± 1.6 | 99.5 ± 3.2 | 99 ± 5.7 | 104 ± 7.5 | 100 ± 1.9 | 106.2 ± 0.64 | 102 ± 5.9 | 97.85 ± 0.21 | 97.8 ± 2.5 | 96.5 ± 10 | 96.8 ± 1.5 | 94.8 ± 6.7 | 95.6 ± 3.2 | > 10 | > 10 | > 10 | > 10 | > 10 |
| COc1cc(N)c(Cl)cc1C(=O)NC1CCN(Cc2ccccc2)CC1 [clebopride] | 0 | 0.1 | 0 | 0 | 0 | 97.1 | 97.5 | 95.1 | 104 | 94.7 | 107 | 99.9 | 108 | 102 | 85.6 | 93.7 | 97.2 | 96.8 | 97.3 | 94 | 94.3 | 101 | 107 | 96.6 | 94.2 | 93.6 | 104 | 102 | 97.6 | 98.1 | > 10 | > 10 | > 10 | > 10 | > 10 |
| Oc1c(I)cc(Cl)c2cccnc12 [clioquinol] | 0.7 | 0.2 | 0 | 0 | 0 | 101 | 98.7 | 92.8 | 104 | 75.6 | 93.5 | 92.2 | 108 | 99.7 | 85.8 | 97.1 | 93.6 | 100 | 96.4 | 99.5 | 95 | 93.2 | 104 | 87.8 | 97.1 | 106 | 99.3 | 108 | 111 | 87.2 | > 10 | > 10 | > 10 | > 10 | > 10 |
| Nc1ncnc2c1ncn2[C@@H]1O[C@@H]2COP(=O)(O)O[C@H]2[C@H]1O [cyclic-AMP] | 0 | 0 | 0 | 0 | 0 | 97.7 | 100 | 89.5 | 102 | 92.2 | 89.8 | 93 | 94.5 | 93.5 | 95.9 | 103 | 103 | 96.1 | 102 | 99.6 | 100 | 107 | 103 | 111 | 95.5 | 102 | 98.6 | 93.9 | 102 | 98.9 | > 10 | > 10 | > 10 | > 10 | > 10 |
| O=c1cccc2n1C[C@@H]1CNC[C@H]2C1 [cytisine] | 0 | 0 | 0 | 0 | 0 | 102 | 101 | 96.4 | 97 | 114 | 93.3 | 92.2 | 92.4 | 91.3 | 96.5 | 102 | 96.2 | 101 | 100 | 102 | 101 | 95.6 | 99 | 95.4 | 104 | 88.2 | 98.6 | 92.5 | 97.3 | 108 | > 10 | > 10 | > 10 | > 10 | > 10 |
| O=C1c2c(O)cc(O)cc2O[C@H](c2cc(O)c(O)c(O)c2)[C@H]1O [dihydromyricetin] | 0 | 0 | 0 | 0 | 0 | 95.8 | 94.5 | 98.5 | 94.7 | 103 | 102 | 92.3 | 95.6 | 100 | 97.4 | 102 | 95.8 | 103 | 106 | 104 | 105 | 98.2 | 93.7 | 111 | 90.3 | 96.1 | 96 | 96.4 | 98.4 | 103 | > 10 | > 10 | > 10 | > 10 | > 10 |
| O=S(=O)(O)CCSSCCS(=O)(=O)O [dimesna] | 0 | 0 | 0 | 1.4 | 0 | 94.6 | 98.8 | 102 | 98.7 | 97.7 | 95.7 | 99.5 | 101 | 98.5 | 92.5 | 104 | 98.7 | 103 | 104 | 101 | 96.8 | 96.3 | 85.7 | 90.7 | 86.2 | 101 | 108 | 104 | 98.5 | 100 | > 10 | > 10 | > 10 | > 10 | > 10 |
| CCCCc1cc2ccccc2c(OCCN(C)C)n1 [dimethisoquin] | 0 | 0 | 0 | 0 | 0 | 103 | 104 | 109 | 91.2 | 102 | 107 | 102 | 91.5 | 105 | 97.6 | 98.9 | 106 | 102 | 105 | 91.3 | 104 | 97.7 | 92.3 | 95.6 | 98.3 | 106 | 97.5 | 97.3 | 96.1 | 94.3 | > 10 | > 10 | > 10 | > 10 | > 10 |
| CN(C)CCOC(C)(c1ccccc1)c1ccccn1 (stereo not given) [doxylamine] | 0 | 0 | 0 | 0 | 0 | 102 | 101 | 101 | 106 | 99.8 | 106 | 97.6 | 98.6 | 98.1 | 104 | 104 | 100 | 103 | 98.4 | 101 | 98.6 | 105 | 98.6 | 106 | 108 | 99.5 | 102 | 100 | 100 | 99.6 | > 10 | > 10 | > 10 | > 10 | > 10 |
| CCOC(=O)COc1ccc2c(=O)cc(-c3ccccc3)oc2c1 [efloxate] | 0 | 0 | 0 | 3 | 0 | 97.9 | 100 | 98.3 | 99.2 | 99.3 | 93 | 88.6 | 101 | 101 | 96.1 | 95.4 | 95.5 | 98.7 | 96.7 | 99.2 | 105 | 98.9 | 85.8 | 83.5 | 99.1 | 97 | 100 | 91.9 | 101 | 106 | > 10 | > 10 | > 10 | > 10 | > 10 |
| COC(=O)N[C@H](C(=O)N1CCC[C@H]1c1nc(-c2ccc3c(c2)O[C@@H](c2ccccc2)n2c-3cc3cc(-c4c[nH]c([C@@H]5CCCN5C(=O)[C@@H](NC(=O)OC)C(C)C)n4)ccc32)c[nH]1)C(C)C [elbasvir] | 0 | 0 | 0 | 0 | 0 | 110 | 88.7 | 108 | 104 | 96.8 | 85 | 103 | 93.1 | 96.1 | 101 | 90.3 | 100 | 98.2 | 97.8 | 99.7 | 99.9 | 106 | 95.8 | 107 | 102 | 105 | 98.5 | 95.3 | 95.5 | 107 | > 10 | > 10 | > 10 | > 10 | > 10 |
| O=c1oc2c(O)c(O)cc3c(=O)oc4c(O)c(O)cc1c4c23 [ellagic-acid] | 0 | 0 | 0 | 0 | 0 | 93.6 | 97 | 97.5 | 96.4 | 91.9 | 104 | 95.8 | 104 | 98.5 | 96.6 | 99.3 | 99.6 | 103 | 100 | 105 | 98.4 | 95.9 | 99.4 | 100 | 93.2 | 99.1 | 106 | 100 | 105 | 107 | > 10 | > 10 | > 10 | > 10 | > 10 |
| CCOC(=O)Nc1ccc2c(c1)N(C(=O)CCN(CC)CC)c1ccccc1S2 [ethacizin] | 0.2 | 0 | 0 | 0 | 0 | 86.4 | 90.4 | 80.8 | 92.7 | 104 | 94.6 | 82.9 | 97.8 | 103 | 97.6 | 97.2 | 105 | 95.6 | 101 | 95.9 | 98.3 | 94.8 | 97.4 | 99.2 | 98.1 | 104 | 91.8 | 103 | 88.9 | 106 | > 10 | > 10 | > 10 | > 10 | > 10 |

Source: the supplement of paper PMC13380429
